Assay results from publication PMC2694832, “Pharmacokinetics, tissue distribution and mass balance of radiolabeled dihydroartemisinin in male rats” (Malaria Journal, 2009).

What was measured:
[1] = Metabolic profile of [^14C] DHA (free, glucuronide and other conjugation fractions); assay type: in vivo, rats; conditions: for drug conjugation of the dose: rats i.v. 3 mg/20 μCi/kg
Method: About 2 ml of plasma and urine, and 1 – 2 g of faeces were used. Conjugates were hydrolyzed by glucuronidase (1000 FU/ml, Sigma-Aldrich, St. Louis, MO) at pH 4.6, 38°C for 24 hours. Active enzyme was checked by phenophthaleinglucuronide at the end of incubation. Urine and faecal samples were incubated for 48 hours and fresh enzyme was added after 24 hours. Total radioactivity in free, conjugated, and the remaining aqueous fractions were measured with liquid scintillation counters. Protein precipitates were dissolved in Solvable^R (200 mg in 1 ml) and counted for radioactivity after addition of scintillation cocktail.

human plasma proteins = experiment: Protein binding of [^14C] DHA, equilibrium dialysis, human plasma; assay type: in vitro ADME
Method: Human blood samples (five men and five women) were freshly obtained from subject volunteers at the Department of Clinical Trials, WRAIR. Rat samples were freshly collected from five male and five female rats. Equilibrium dialysis was performed using Teflon dialysis chambers and Diachema standard membranes as described by Li and Hümpel. The GD-4/90 Equilibrium Dialyzer (MM Developments, Ottawa) contained 20 micro-dialysis cells (2.0 ml/chamber). The molecular weight cutoff for dialysis membranes was 5000 D. Equilibrium was reached after four hours, when cells were rotated at 16 rpm and 37°C. Drugs were dissolved in plasma samples with various concentrations (0.15 – 57800 ng/ml) and all experiments were carried out for five hours.

[2] = Pharmacokinetic study of [^14C] DHA and unchanged DHA, single i.v. dose; assay type: in vivo, rats; conditions: for fourth peak concentration of radioactivity: 6 hours; for first peak concentration of radioactivity: at one minute
Method: Traditional PK studies involve intermittent blood sampling and subsequent determination of drug concentrations in whole blood and plasma. The Culex automated blood sampler provides a way for blood withdrawal at preprogrammed intervals, which is more accurate and less labor intensive. Six rats in the PK group were implanted with a jugular vein catheter under an isofluorane anesthaesia. After the surgery, rats were allowed to recover for 96 hours with free access to food and water. The rats were dosed single i.v. at 3 mg/ml/kg with [^14C] DHA (20 μCi/kg), which was prepared as a 25% cremophore/0.9% saline solution, through the tail vein. […] PK evaluation of [^14C] DHA in plasma and whole blood, as well as unchanged DHA in plasma was conducted in individual rats.
Total radioactivity in the collected tissue samples were quantified in duplicate. Weighed tissue aliquots (~0.2 g) were digested overnight in 2 ml of Solvable® tissue solubilizer (Perkin-Elmer Life and Analytical Sciences, Boston, MA) at 50°C. Coloured samples were decolourized by adding a maximum of 0.2 ml of 30% H2O2 for 30–60 minutes. Scintillation cocktail (Hyonic Fluor; Perkin-Elmer Boston. Massachusetts, USA) was then added and radioactivity determined in a Perkin-Elmer Tri-Carb 3100 TR scintillation spectrophotometer (Packard Instrument Co., Downers Grove, Illinois, USA). Faeces and intestinal contents were thoroughly homogenized before taking aliquots. Plasma was also analysed using the HPLC-ECD system to measure the concentration of unchanged DHA, as described by Li et al.
The analysis of cold DHA in plasma was performed according to a previously described HPLC method with the following modifications: for simultaneous determination of artemisinin and DHA (artemisinin as an internal standard), the Agilent Eclipse XDB-C18 column 5 μm (4.6 × 150 mm) was used with an isocratic mobile phase consisting of 40% acetonitrile: 60% ESA Acid Metabolite A (70–4835) in the reductive mode (-400 mV) for the quantification of DHA. Validation and reproducibility were evaluated and a lower limit of quantitation (LLQ) of 2.31 ng/ml for DHA was determined. The inter- and intra-day coefficient of variation for accuracy and precision were all within ± 10%.
For pharmacokinetics, the concentration-time data of [^14C] DHA in plasma and whole blood collected during the 192 hour treatment period was fitted to a three-compartment open model using a nonlinear, extended least-square fitting procedure (WinNonlin 5.2, Pharsight Corporation, Cary, NC) using weighted (1/concentration) nonlinear regression. The area under the curve (AUC) was determined by the linear trapezoidal rule with extrapolation to infinity based on the concentration of the last time point divided by the terminal rate constant. Extrapolations to time zero were done using zero concentration for intravenous dosing and using C0 values determined from the three-compartment model equation at time zero by i.v. route. Mean clearance rate (CL) was determined by dividing the dose by the AUCinf for i.v. injection. Mean residence time (MRT) was determined by dividing the area under the first moment curve (AUMC) by the AUC. The volume of distribution at steady state (Vss) was calculated as the product of CL and MRT. The concentration-time data of unchanged DHA was fitted to a two-compartment open model. Statistical analysis was conducted with Microsoft Excel using a Student's t-test for dependent samples to compare means of paired and unpaired samples between two groups.

[3] = blood radioactivity, three-compartment, rats single i.v. 3 mg/20 μCi/kg
[4] = blood radioactivity, rats single i.v. 3 mg/20 μCi/kg
[5] = plasma radioactivity, three-compartment, rats single i.v. 3 mg/20 μCi/kg
[6] = plasma radioactivity, rats single i.v. 3 mg/20 μCi/kg
[7] = plasma radioactivity, rats single i.v. 3 mg/20 μCi/kg, listed as 14C-Dihydroartemisinin
[8] = plasma, rats i.v. 3 mg/20 μCi/kg

C[C@@H]1CC[C@H]2[C@@H]([14CH3])C(O)O[C@@H]3O[C@@]4(C)CC[C@@H]1[C@]32OO4 (stereo partly drawn) [[^14C] DHA, [16-^14C] DHA]
ratio of conjugation to free ([1]; plasma, 10 minutes): 1.86 | ratio of conjugation to free ([1]; plasma, 1 hour after dosing): 4.48 | ratio of conjugation to free ([1]; plasma, 192 hours): 15.1 | ratio of conjugation to free ([1]; plasma, within five minutes after dosing): 1.07 | drug conjugation of the dose ([1]; plasma): up to 89% | drug conjugation of the dose ([1]; urine): ≤ 95% | maximum binding percentage (human plasma proteins; human plasma, concentration range 0.15 – 462 ng/ml): 82% | binding percentage declined to, at higher concentrations (human plasma proteins; human plasma, higher concentrations (> 25 ng/ml)): 66% | plasma protein binding percentage (human plasma proteins; undiluted human plasma, 0.15 to 57800 ng/ml, 37°C, five hours): 76–82% | AUCinf. [2, 3]: 52.69 ± 4.971 µg·h/mL | CL [2, 3]: 0.04358 ± 0.0307 L/h/kg | Cmax [2, 3]: 3.105 ± 0.43 µg/mL | MRT [2, 3]: 148.57 ± 90.24 h | Vss [2, 3]: 10.792 ± 3.771 L/kg | t1/2 – alpha [2, 3]: 0.18 ± 0.02 h | t1/2 – beta [2, 3]: 19.68 ± 3.88 h | t1/2 – gamma (terminal) [2, 3]: 122.13 ± 8.73 h | Cmax at first peak [2, 4]: 3.105 ± 0.43 µg/mL | Cmax at fourth peak [2, 4]: 0.833 ± 0.099 µg/mL | Cmax at second peak [2, 4]: 1.557 ± 0.955 µg/mL | Cmax at third peak [2, 4]: 0.978 ± 0.164 µg/mL | Tmax [2, 4]: 1.2 min | time of first peak [2, 4]: 0.02 h | time of fourth peak [2, 4]: 6 h | time of second peak [2, 4]: 0.94 h | time of third peak [2, 4]: 2.00 h | time of fourth peak ([2]; blood radioactivity, rats single i.v. 3 mg/20 μCi/kg, listed as 14C-Dihydroartemisinin): 6.00 h | fourth peak concentration of radioactivity ([2]; blood, rats i.v. 3 mg/20 μCi/kg): 833 ng equivalents/ml | third peak concentration of radioactivity ([2]; blood, at two hours, rats i.v. 3 mg/20 μCi/kg): 978 ng equivalents/ml | AUCinf. [2, 5]: 21.014 ± 2.718 µg·h/mL | CL [2, 5]: 0.14463 ± 0.01817 L/h/kg | MRT [2, 5]: 57.00 ± 2.84 h | Vss [2, 5]: 8.216 ± 0.828 L/kg | t1/2 – alpha [2, 5]: 0.21 ± 0.05 h | t1/2 – gamma (terminal) [2, 5]: 75.57 ± 7.34 h | time of second peak ([2]; plasma radioactivity, rats i.v. 3 mg/20 μCi/kg): 0.183 h | Cmax at fourth peak [2, 6]: 0.584 ± 0.0655 µg/mL | Cmax at second peak [2, 6]: 2.373 ± 0.195 µg/mL | Cmax at third peak [2, 6]: 0.863 ± 0.537 µg/mL | Tmax [2, 6]: 1.2 min | time of first peak [2, 6]: 0.02 h | time of fourth peak [2, 6]: 6 h | time of second peak [2, 6]: 0.19 h | time of third peak [2, 6]: 1.7 h | time of fourth peak [2, 7]: 6.00 h | time of third peak [2, 7]: 1.70 h | fourth peak concentration of radioactivity [2, 8]: 584 ng equivalents/ml | first peak concentration of radioactivity [2, 8]: 3,446 ng equivalents/g | second peak concentration of radioactivity [2, 8]: 2,373 ng equivalents/ml | third peak concentration of radioactivity [2, 8]: 863 ng equivalents/ml | total radioactivity in the plasma fraction relative to blood total ([2]; rats i.v.): less than 25% | duration of total radioactivity (long-lasting metabolites) ([2]; rats, plasma, urine and faeces, single i.v. 3 mg/20 μCi/kg): > 192 h | time of second peak ([2]; whole blood radioactivity, rats i.v. 3 mg/20 μCi/kg): 0.933 h | first peak concentration of radioactivity ([2]; whole blood, rats i.v. 3 mg/20 μCi/kg): 3,105 ng equivalents/g
